Test results from article PMC10088252.
Read-outs that look alike come from different tables or passages of the source.

Method: Dose adjustment was allowed according to the severity of toxicity [Supplementary Table 1].
The primary endpoints were safety, ORR and DCR assessed by investigators. […] AEs referred to treatment-emergent adverse events (TEAEs) and TRAEs were assessed by investigators. Serious adverse events (SAEs) referred to AEs meeting at least one of the following criteria: event leading to death; life-threatening event; event requiring hospitalization or extension of hospital stay; event leading to persistent or evident disability or dysfunction; event leading to congenital malformation or birth defect or event which might lead to injury or that need medical treatment to avoid the above mentioned important medical events.

O=C(Nc1ccc(Oc2ccnc3c2CCN3)c(F)c1)c1c[nH]cc(-c2ccc(F)cc2)c1=O
4 (100.0) n (%): TRAE PPE, any grade (400 mg BID (n=4))
3 (25.0) n (%): TRAE Dysgeusia, any grade (450 mg QD (n=12)) | TRAE Haematuria, any grade (450 mg QD (n=12))
3 (75.0) n (%): TRAE Elevated ALT, any grade (400 mg BID (n=4)) | TRAE Elevated AST, any grade (400 mg BID (n=4)) | TRAE PPE, grade 3-4 (400 mg BID (n=4))
1 (25.0) n (%): TRAE Elevated GGT, any grade (400 mg BID (n=4)) | TRAE Elevated LDH, any grade (400 mg BID (n=4)) | TRAE Elevated alpha-HBDH, any grade (400 mg BID (n=4)) | TRAE Elevated bilirubin, any grade (400 mg BID (n=4)) | TRAE Elevated blood creatinine, any grade (400 mg BID (n=4)) | TRAE Hyperlipidaemia, any grade (400 mg BID (n=4)) | TRAE Hypertension, any grade (400 mg BID (n=4)) | TRAE Leukopenia, any grade (400 mg BID (n=4)) | TRAE Thrombocytopenia, grade 3-4 (400 mg BID (n=4)) | TRAE Vomiting, any grade (400 mg BID (n=4))
1 (8.3) n (%): TRAE Activated partial thromboplastin time prolonged, any grade (450 mg QD (n=12)) | TRAE Anaemia, any grade (450 mg QD (n=12)) | TRAE Anaemia, grade 3-4 (450 mg QD (n=12)) | TRAE Arthralgia, any grade (450 mg QD (n=12)) | TRAE Blister, any grade (450 mg QD (n=12)) | TRAE Chronic kidney disease, any grade (450 mg QD (n=12)) | TRAE Diarrhoea, any grade (450 mg QD (n=12)) | TRAE Elevated creatine phosphokinase, any grade (450 mg QD (n=12)) | TRAE Elevated troponin, any grade (450 mg QD (n=12)) | TRAE Hyperhidrosis, any grade (450 mg QD (n=12))
2 (16.7) n (%): TRAE Asthenia, any grade (450 mg QD (n=12)) | TRAE Decreased Ccr, any grade (450 mg QD (n=12)) | TRAE Decreased appetite, any grade (450 mg QD (n=12)) | TRAE Dry mouth, any grade (450 mg QD (n=12)) | TRAE Elevated blood creatinine, any grade (450 mg QD (n=12))
2 (50.0) n (%): TRAE Elevated creatine phosphokinase, any grade (400 mg BID (n=4)) | TRAE Thrombocytopenia, any grade (400 mg BID (n=4))
5 (41.7) n (%): TRAE Constipation, any grade (450 mg QD (n=12)) | TRAE Elevated ALT, any grade (450 mg QD (n=12)) | TRAE Elevated AST, any grade (450 mg QD (n=12))
0 n (%): TRAE Dyskinesia, any grade (400 mg BID (n=4)) | TRAE Dyskinesia, grade 3-4 (400 mg BID (n=4)) | TRAE Dysphonia, any grade (400 mg BID (n=4)) | TRAE Dysphonia, grade 3-4 (400 mg BID (n=4)) | TRAE Dyspnoea, any grade (400 mg BID (n=4)) | TRAE Dyspnoea, grade 3-4 (400 mg BID (n=4)) | TRAE Electrocardiogram QT prolonged, any grade (400 mg BID (n=4)) | TRAE Electrocardiogram QT prolonged, grade 3-4 (400 mg BID (n=4)) | TRAE Elevated ALT, grade 3-4 (400 mg BID (n=4)) | TRAE Elevated AST, grade 3-4 (400 mg BID (n=4)) | TRAE Elevated D dimer, any grade (400 mg BID (n=4)) | TRAE Elevated D dimer, grade 3-4 (400 mg BID (n=4)) | TRAE Elevated GGT, grade 3-4 (400 mg BID (n=4)) | TRAE Elevated LDH, grade 3-4 (400 mg BID (n=4)) | TRAE Elevated alpha-HBDH, grade 3-4 (400 mg BID (n=4)) | TRAE Elevated bilirubin, grade 3-4 (400 mg BID (n=4)) | TRAE Elevated blood creatinine, grade 3-4 (400 mg BID (n=4)) | TRAE Elevated creatine phosphokinase, grade 3-4 (400 mg BID (n=4)) | TRAE Elevated serum urea, any grade (400 mg BID (n=4)) | TRAE Elevated serum urea, grade 3-4 (400 mg BID (n=4)) | TRAE Elevated troponin, any grade (400 mg BID (n=4)) | TRAE Elevated troponin, grade 3-4 (400 mg BID (n=4)) | TRAE Genital rash, any grade (400 mg BID (n=4)) | TRAE Genital rash, grade 3-4 (400 mg BID (n=4)) | TRAE Haematuria, any grade (400 mg BID (n=4)) | TRAE Haematuria, grade 3-4 (400 mg BID (n=4)) | TRAE Headache, any grade (400 mg BID (n=4)) | TRAE Headache, grade 3-4 (400 mg BID (n=4)) | TRAE Hyperhidrosis, any grade (400 mg BID (n=4)) | TRAE Hyperhidrosis, grade 3-4 (400 mg BID (n=4)) | TRAE Hyperlipidaemia, grade 3-4 (400 mg BID (n=4)) | TRAE Hypertension, grade 3-4 (400 mg BID (n=4)) | TRAE Hypoaesthesia oral, any grade (400 mg BID (n=4)) | TRAE Hypoaesthesia oral, grade 3-4 (400 mg BID (n=4)) | TRAE Hypocalcaemia, any grade (400 mg BID (n=4)) | TRAE Hypocalcaemia, grade 3-4 (400 mg BID (n=4)) | TRAE Hypotension, any grade (400 mg BID (n=4)) | TRAE Hypotension, grade 3-4 (400 mg BID (n=4)) | TRAE Insomnia, any grade (400 mg BID (n=4)) | TRAE Insomnia, grade 3-4 (400 mg BID (n=4)) | TRAE Leukopenia, grade 3-4 (400 mg BID (n=4)) | TRAE Nausea, any grade (400 mg BID (n=4)) | TRAE Nausea, grade 3-4 (400 mg BID (n=4)) | TRAE Neuritis, any grade (400 mg BID (n=4)) | TRAE Neuritis, grade 3-4 (400 mg BID (n=4)) | TRAE Occult blood, any grade (400 mg BID (n=4)) | TRAE Occult blood, grade 3-4 (400 mg BID (n=4)) | TRAE Oedema peripheral, any grade (400 mg BID (n=4)) | TRAE Oedema peripheral, grade 3-4 (400 mg BID (n=4)) | TRAE Onycholysis, any grade (400 mg BID (n=4)) | TRAE Onycholysis, grade 3-4 (400 mg BID (n=4)) | TRAE Oropharyngeal pain, any grade (400 mg BID (n=4)) | TRAE Oropharyngeal pain, grade 3-4 (400 mg BID (n=4)) | TRAE Paraesthesia, any grade (400 mg BID (n=4)) | TRAE Paraesthesia, grade 3-4 (400 mg BID (n=4)) | TRAE Proteinuria, any grade (400 mg BID (n=4)) | TRAE Proteinuria, grade 3-4 (400 mg BID (n=4)) | TRAE Pruritus, any grade (400 mg BID (n=4)) | TRAE Pruritus, grade 3-4 (400 mg BID (n=4)) | TRAE Rash maculo-papular, any grade (400 mg BID (n=4)) | TRAE Rash maculo-papular, grade 3-4 (400 mg BID (n=4)) | TRAE Sinus tachycardia, any grade (400 mg BID (n=4)) | TRAE Sinus tachycardia, grade 3-4 (400 mg BID (n=4)) | TRAE Skin fissures, any grade (400 mg BID (n=4)) | TRAE Skin fissures, grade 3-4 (400 mg BID (n=4)) | TRAE Supraventricular extrasystoles, any grade (400 mg BID (n=4)) | TRAE Supraventricular extrasystoles, grade 3-4 (400 mg BID (n=4)) | TRAE Upper respiratory tract infection, any grade (400 mg BID (n=4)) | TRAE Upper respiratory tract infection, grade 3-4 (400 mg BID (n=4)) | TRAE Urinary retention, any grade (400 mg BID (n=4)) | TRAE Urinary retention, grade 3-4 (400 mg BID (n=4)) | TRAE Urinary tract infection, any grade (400 mg BID (n=4)) | TRAE Urinary tract infection, grade 3-4 (400 mg BID (n=4)) | TRAE Ventricular arrhythmia, any grade (400 mg BID (n=4)) | TRAE Ventricular arrhythmia, grade 3-4 (400 mg BID (n=4)) | TRAE Ventricular extrasystoles, any grade (400 mg BID (n=4)) | TRAE Ventricular extrasystoles, grade 3-4 (400 mg BID (n=4)) | TRAE Vomiting, grade 3-4 (400 mg BID (n=4)) | TRAE Weight loss, any grade (400 mg BID (n=4)) | TRAE Weight loss, grade 3-4 (400 mg BID (n=4)) | TRAE Accessory nerve disorder, any grade (450 mg QD (n=12)) | TRAE Accessory nerve disorder, grade 3-4 (450 mg QD (n=12)) | TRAE Activated partial thromboplastin time prolonged, grade 3-4 (450 mg QD (n=12)) | TRAE Anaesthesia oral, any grade (450 mg QD (n=12)) | TRAE Anaesthesia oral, grade 3-4 (450 mg QD (n=12)) | TRAE Arrhythmia, any grade (450 mg QD (n=12)) | TRAE Arrhythmia, grade 3-4 (450 mg QD (n=12)) | TRAE Arthralgia, grade 3-4 (450 mg QD (n=12)) | TRAE Asthenia, grade 3-4 (450 mg QD (n=12)) | TRAE Blister, grade 3-4 (450 mg QD (n=12)) | TRAE Chest discomfort, any grade (450 mg QD (n=12)) | TRAE Chest discomfort, grade 3-4 (450 mg QD (n=12)) | TRAE Chronic kidney disease, grade 3-4 (450 mg QD (n=12)) | TRAE Constipation, grade 3-4 (450 mg QD (n=12)) | TRAE Cough, any grade (450 mg QD (n=12)) | TRAE Cough, grade 3-4 (450 mg QD (n=12)) | TRAE Decreased Ccr, grade 3-4 (450 mg QD (n=12)) | TRAE Decreased appetite, grade 3-4 (450 mg QD (n=12)) | TRAE Diarrhoea, grade 3-4 (450 mg QD (n=12)) | TRAE Dizziness, any grade (450 mg QD (n=12)) | TRAE Dizziness, grade 3-4 (450 mg QD (n=12)) | TRAE Dry mouth, grade 3-4 (450 mg QD (n=12)) | TRAE Dysgeusia, grade 3-4 (450 mg QD (n=12)) | TRAE Dyskinesia, any grade (450 mg QD (n=12)) | TRAE Dyskinesia, grade 3-4 (450 mg QD (n=12)) | TRAE Dysphonia, any grade (450 mg QD (n=12)) | TRAE Dysphonia, grade 3-4 (450 mg QD (n=12)) | TRAE Dyspnoea, any grade (450 mg QD (n=12)) | TRAE Dyspnoea, grade 3-4 (450 mg QD (n=12)) | TRAE Electrocardiogram QT prolonged, any grade (450 mg QD (n=12)) | TRAE Electrocardiogram QT prolonged, grade 3-4 (450 mg QD (n=12)) | TRAE Elevated ALT, grade 3-4 (450 mg QD (n=12)) | TRAE Elevated AST, grade 3-4 (450 mg QD (n=12)) | TRAE Elevated D dimer, any grade (450 mg QD (n=12)) | TRAE Elevated D dimer, grade 3-4 (450 mg QD (n=12)) | TRAE Elevated GGT, any grade (450 mg QD (n=12)) | TRAE Elevated GGT, grade 3-4 (450 mg QD (n=12)) | TRAE Elevated LDH, any grade (450 mg QD (n=12)) | TRAE Elevated LDH, grade 3-4 (450 mg QD (n=12)) | TRAE Elevated alpha-HBDH, any grade (450 mg QD (n=12)) | TRAE Elevated alpha-HBDH, grade 3-4 (450 mg QD (n=12)) | TRAE Elevated bilirubin, any grade (450 mg QD (n=12)) | TRAE Elevated bilirubin, grade 3-4 (450 mg QD (n=12)) | TRAE Elevated blood creatinine, grade 3-4 (450 mg QD (n=12)) | TRAE Elevated creatine phosphokinase, grade 3-4 (450 mg QD (n=12)) | TRAE Elevated serum urea, any grade (450 mg QD (n=12)) | TRAE Elevated serum urea, grade 3-4 (450 mg QD (n=12)) | TRAE Elevated troponin, grade 3-4 (450 mg QD (n=12)) | TRAE Genital rash, any grade (450 mg QD (n=12)) | TRAE Genital rash, grade 3-4 (450 mg QD (n=12)) | TRAE Haematuria, grade 3-4 (450 mg QD (n=12)) | TRAE Headache, any grade (450 mg QD (n=12)) | TRAE Headache, grade 3-4 (450 mg QD (n=12))
